# “Also recorded” adds a separate entry of the source. Peptide text beside a SMILES is read from it. * marks the point of attachment. Cbz = O=C(OCc1ccccc1)*; CH2F = FC*
# Key:
# ARPE-19 cells = conditions: for protection against lethal doses of A2E, viability: ARPE19 pretreated 1 hr, then A2E 25 μM for 24 hrs in presence of drug; for protection against lethal doses of A2E, viability / protection against light-independent LF (A2E/ATRD) cytotoxicity, RPE survival: AlamarBlue; for protection against light-independent LF (A2E/ATRD) cytotoxicity, RPE survival: ARPE-19, inhibitor pretreatment, A2E/ATRD 24 h, no light; for cell death in ARPE19 cells exposed to the substance: light-independent
# Protocol: Cell Viability Assay. […] 1× AlamarBlue solution prepared in OptiMEM was used to replace the media supernatant and the plate's fluorescence was determined at 555 nm excitation/585 nm emission with a SpectraMax M (Molecular Devices, CA, USA), after 1 h. […] The exact timing of appearance of far-red (DRAQ7=plasma membrane leakage) and blue (NUC405=caspase 3 activation) fluorescence signals was critical to differentiate apoptosis and necrosis from secondary events, such as membrane damage and generalized proteolytic activation during the late phase of apoptosis and necrosis, respectively.
# Real time monitoring of necrotic and apoptotic cell-death. Cell-death assay to study Lipofuscin's dark toxicity was performed. 90% confluent ARPE-19 or hfRPE were incubated overnight in serum free media supplemented with indicated LB concentration. Viability was assessed at 24 hrs by AlamarBlue®, or microscopy with NUC405/DRAQ7. Real time monitoring of necrotic (red) and apoptotic (blue) cell-death was performed by automated fluorescence microscopy. The exact timing of appearance of far-red (DRAQ7=plasma membrane leakage) and blue (NUC405=caspase 3 activation) fluorescence signals was critical to differentiate apoptosis and necrosis from secondary events, such as membrane damage and generalized proteolytic activation during the late phase of apoptosis and necrosis, respectively.
# Chemical inhibitors. Chemical inhibitors used in this study are described in FIG. 12.
# human MLKL = test: Western blot of Ser358 phospho-MLKL, phosphorylation and polymerization of MLKL; assay type: cell-based; conditions: for effect on LF-induced phosphorylation and polymerization of MLKL: non-reducing conditions, cells with A2E/ATRD; for induction of phosphorylation and polymerization of MLKL: absence of light
# Protocol: (§1) Immunoblotting. Total cell lysates were extracted using RIPA lysis buffer (50 mM TrisHCl, Ph 8.0, 150 mM NaCl, 1% NP40, 0.5% Sodium Deoxycholate, 0.1% SDS, protease-phosphatase inhibitor) after the incubation of the specific sample group in a 48 well plate. Sonication or syringing (20 times) was done followed by centrifugation at 12,000×g for 10 mins and the supernatant was collected and stored in −80° C. Proten concentration from homogenates were assessed by Pierce Rapid Gold BCA protein assay kit (ThermoFisher Scientific, cat.no. A53225). Then 30 μg of protein was analyzed by standard SDS-PAGE gel. Samples were mixed 4:1 (v:v) with Nupage loading buffer with or without 8% 0-mercaptoethanol and heated for 10 min at 72° C. SDS-PAGE was done using 4-12% Nupage gel and buffer (Life, NP0335BOX). Next, SDS-PAGE gel was transferred to nitrocellulose membrane (Whatman, PROTAN BA83) overnight at 20V. The following day, 5% milk in TBS was used for 2 h blocking the membrane and then primary antibody was added in TBST (TBS, 0.1% Tween-20) for overnight at 4° C. Next day membranes were washed and incubated for 2 hours at room temperature with HRP conjugated secondary antibody (cat #G21234, Invitrogen) at 1:10,000 dilution. After 3 more washed membranes were probed with enhanced chemiluminescence (ECL) reagent and detected using an X-ray films for chemiluminescence image (GE healthcare, RPN2106). Scanning/imaging and quantitation of the image was done using silverfast 8 application software and Fiji Image J. Antibodies for Western blotting were list in FIG. 10.
# For its phosphorylation, MLKL and its kinase need to be recruited into multiprotein complexes, known as necrosomes (FIG. 4O). Necrosomes are not well conserved among species and vary also with the nature of the stimuli that triggers their formation. […] Considering that phosphorylation of human MLKL at Ser358 (pMLKL), is a hallmark triggering event and marker of necroptosis, the Ser358-phosphorylation and polymerization status of MLKL in cells with LF was determined. […] A prerequisite for the assembly of these RIP kinases into necrosomes was their phosphorylation.
# CHOP = test: Western blot of CHOP upregulation (UPR, downstream of PERK); assay type: cell-based, Human; conditions: cells incubated with A2E
# Protocol: as §1
# ARPE19 cells = test: ATR-induced light-independent cell death; assay type: cell-based, Human; conditions: pre-treatment with 33 μM
# Text: Overall, these indicate that necroptosis is a specific readout of ocular lipofuscin toxicity, easily distinguishable from the poisonous effects of ATR.
# cathepsin D = assay type: cell-based
# Text: (§2) Next, A2E buildups were imaged using a combination of DIC and fluorescence: A2E appeared as granules with well-defined edges, both within cells or after drying over a coverslip (FIGS. 14D and 14E). Next, the ability of the suspected A2E crystals to damage lysosomal membranes was investigated. A recently developed galectin-3 puncta assay for early detection of lysosomal membrane permeabilization (LMP) was used. Briefly, cytosolic galectin-3 rapidly binds to the glycocalyx in the luminal face of lysosomal membranes as they become leaky, which is easily detectable with anti-galectin high-affinity antibodies. L-Leucyl-L-Leucine methyl ester (LLO) a lysosomotropic peptide that causes LMP was used as positive control of puncta formation (FIG. 14E). […] LMP was confirmed by showing the […] of cathepsin D, as surrogate of lysosomal enzymes. […] Also, very remarkable was the observation that the same unique pattern of protection with arimoclomol and Nec-7 but not Nec-1 was observable for LLO (FIG. 14K), consistent with the idea that necroptosis by A2E is being caused by LMP.
# [1] = system: UPR (PERK and ATF6 branches); test: Western blot of ER-stress markers (p-eIF2a, ATF4, BiP, ATF6) without illumination; assay type: cell-based, Human
# Protocol: as §1
# The causal link between LF accumulation and ER-stress without light assistance was analyzed (FIG. 6A). […] The activation of the IRE1α branch was visualized by qPCR.
# IRE1α = test: qPCR of spliced XBP1 (XBP1s) as readout of IRE1α activity in ARPE-19; assay type: cell-based, Human; conditions: in the dark, qPCR
# Text: RNA isolation and quantitative PCR. Total RNA was extracted from cultured cells or mouse eye RPE layer using the RNeasy Mini kit (QIAGEN). The total RNA was digested with deoxyribonuclease I to prevent amplification of genomic DNA. The total RNA then was reversed transcribed using High-Capacity cDNA Reverse Transcription Kit (ThermoFisher Scientific, cat.no. 4368814) and analyzed gene expression using SYBR Green Master Mix (ThermoFisher Scientific, cat.no. 4472908) in an Applied Biosystems StepOne real time PCR machine. GAPDH was used as a reference gene. […] After genes were amplified by real time PCR, some of the PCR products were separated by 2.5% agarose gel.
# lysosomal membranes = assay type: cell-based
# Text: as §2
molecule,measurement,setting,value
COc1cc(OC)c(/C=C/S(=O)(=O)Cc2ccc(OC)c(OP(=O)(O)O)c2)c(OC)c1 [Briciclib],"protection against lethal doses of A2E, viability",ARPE-19 cells,did not confer significant protection
CC(C)c1nc(-c2ccc(NC(=O)Nc3cccc(C(F)(F)F)c3)c3ccccc23)c2c(N)nccn12 [KIRA3],"protection against light-independent LF (A2E/ATRD) cytotoxicity, RPE survival",ARPE-19 cells,sufficient to protect against necroptosis by LF
Cc1cc(O)c(C(=O)/C=C/c2ccc(O)c([N+](=O)[O-])c2)c(=O)o1 [Nec2],effect on LF-induced phosphorylation and polymerization of MLKL,human MLKL,not affected
same,"protection against light-independent LF (A2E/ATRD) cytotoxicity, RPE survival",ARPE-19 cells,not affected
"CN1C(=O)C(Cc2c[nH]c3ccccc23)NC1=S (stereo not shown) [Nec1, Necrostatin-1]",effect on LF-induced upregulation of CHOP / UPR,CHOP,neither Nec1 nor GSK'872 effected the UPR
same,effect on LF-induced phosphorylation and polymerization of MLKL,human MLKL,did not block phosphorylation and polymerization of MLKL; also recorded: not affected
same,"protection against light-independent LF (A2E/ATRD) cytotoxicity, RPE survival",ARPE-19 cells,not affected
same,effect on cell death by ATR,ARPE19 cells,did not block cell death
O=S(=O)(N=Cc1c(O)ccc2ccccc12)c1cccs1 [STF-0831],"protection against light-independent LF (A2E/ATRD) cytotoxicity, RPE survival",ARPE-19 cells,did not translate into survival
COc1ccc(-n2c(SCC#N)nc3sc4c(c3c2=O)CCCC4)cc1 [Nec5],effect on LF-induced phosphorylation and polymerization of MLKL,human MLKL,not affected
same,"protection against light-independent LF (A2E/ATRD) cytotoxicity, RPE survival",ARPE-19 cells,not affected
methyl beta-cyclodextrins [MβCD],protection against A2E cytotoxicity by neutralization of detergent activity,"ARPE-19 cells; 10 μM methyl-βCD, 20 μM A2E",did not protect against A2E
COc1nccnc1NS(=O)(=O)c1ccc(NC(=O)/C=C/c2ccc([N+](=O)[O-])s2)cc1 [necrosulfonamide],"protection against light-independent LF (A2E/ATRD) cytotoxicity, RPE survival",ARPE-19 cells,increased RPE survival in a dose dependent manner
O=C(/C=C/c1ccccc1)NC(NC(=S)Nc1ccc(Cl)cc1)C(Cl)(Cl)Cl (stereo not shown) [SAL003],"protection against lethal doses of A2E, viability",ARPE-19 cells,protected against lipofuscin
[O-][n+]1cccc(/C(Cl)=N/OC[C@H](O)CN2CCCCC2)c1 [arimoclomol],effect on loss of cathepsin-D activity caused by A2E,cathepsin D,prevented
same,"protection against light-independent LF (A2E/ATRD) cytotoxicity, RPE survival",ARPE-19 cells,protects against necroptosis by lipofuscin
CC(C)(C)c1nc(-c2cccc(NS(=O)(=O)c3c(F)cccc3F)c2F)c(-c2ccnc(N)n2)s1 [dabrafenib],"protection against light-independent LF (A2E/ATRD) cytotoxicity, RPE survival",ARPE-19 cells,increased RPE survival in a dose dependent manner
N=C(N)N/N=C/c1c(Cl)cccc1Cl [Guanabenz],"protection against lethal doses of A2E, viability",ARPE-19 cells,did not confer significant protection
COC(=O)C[C@H](NC(=O)[C@H](C)NC(=O)[C@@H](NC(=O)OCc1ccccc1)C(C)C)C(=O)CF [z-VAD(OMe)-FMK] (Cbz-Val-Ala-Asp(OMe)-CH2F),"protection against light-independent LF (A2E/ATRD) cytotoxicity, RPE survival",ARPE-19 cells,provided no protection
CC(C)S(=O)(=O)c1ccc2nccc(Nc3ccc4scnc4c3)c2c1 [GSK'872],effect on LF-induced upregulation of CHOP / UPR,CHOP,neither Nec1 nor GSK'872 effected the UPR
same,effect on LF-induced phosphorylation and polymerization of MLKL,human MLKL,did not; also recorded: not affected
same,"protection against light-independent LF (A2E/ATRD) cytotoxicity, RPE survival",ARPE-19 cells,did not protect; also recorded: not affected
tunicamycin,cleavage of ATF6,"[1]; 6 hrs treatment, 20 μM A2E",significant cleavage
Cc1cc(=O)oc2c(C=O)c(O)ccc12 [4μ8C],"protection against light-independent LF (A2E/ATRD) cytotoxicity, RPE survival",ARPE-19 cells,did not translate into survival
c1cc(Nc2cc(C3CC3)[nH]n2)nc(Nc2ccc3nc[nH]c3c2)n1 [APY29],"protection against light-independent LF (A2E/ATRD) cytotoxicity, RPE survival",ARPE-19 cells,did not translate into survival
CCC(=O)N1CCN(c2ccc(-n3c(=O)ccc4cnc5ccc(-c6cnc7ccccc7c6)cc5c43)cc2C(F)(F)F)CC1 [Torin-1],"protection against lethal doses of A2E, viability",ARPE-19 cells,did not confer significant protection
Cc1cc(Nc2cc(N)ncn2)c(=O)n2c1C(=O)NC21CCCCC1 [eFT508],"protection against lethal doses of A2E, viability",ARPE-19 cells,did not confer significant protection
all-trans-retinal dimers [ATRD],induction of XBP1s,IRE1α,dose and time-dependent inductions of XBP1s
same,induction of phosphorylation and polymerization of MLKL,human MLKL,dose-dependent phosphorylation and polymerization of MLKL
same,cell death in ARPE19 cells exposed to the substance,ARPE-19 cells,Dose dependent cell death
same,induction of ATF4 and BiP,[1]; without light,highest induction of ATF4 and BiP
"COC(=O)[C@H](CC(C)C)NC(=O)[C@@H](N)CC(C)C [LLO, L-Leucyl-L-Leucine methyl ester]",cathepsin-D activity,cathepsin D,caused reduction in cathepsin-D activity
same,lysosomal membrane permeabilization (galectin-3 puncta),lysosomal membranes,induced Lysosome membrane permeabilization (LMP)
COc1ccc(O)c(C(C)(C)C)c1 [BHA],"protection against light-independent LF (A2E/ATRD) cytotoxicity, RPE survival",ARPE-19 cells,did not rescue
CN1C(=O)NC(Cc2c[nH]c3c(Cl)cccc23)C1=O (stereo not shown) [Nec1s],effect on LF-induced phosphorylation and polymerization of MLKL,human MLKL,not affected
same,"protection against light-independent LF (A2E/ATRD) cytotoxicity, RPE survival",ARPE-19 cells,not affected
same,effect on cell death by ATR,ARPE19 cells,did not block cell death
"CC1=C(/C=C/C(C)=C/C=C/C(C)=C/C=O)C(C)(C)CCC1 [ATR, all-trans-retinal]",induction of phosphorylation and polymerization of MLKL,human MLKL,no increase in phosphorylation/polymerization of MLKL
same,cell death in ARPE19 cells exposed to the substance,ARPE-19 cells,Dose dependent cell death
CN1CCN(C(=O)c2ccc(-c3ccc4c(C=O)c(O)ccc4c3)s2)CC1 [MKC-3946],"protection against light-independent LF (A2E/ATRD) cytotoxicity, RPE survival",ARPE-19 cells,did not translate into survival

# From patent US20240082221A1, “COMPOSITIONS AND METHODS FOR THE IDENTIFICATION OF COMPOUNDS THAT PROTECT AGAINST LIPOFUSCIN CYTOTOXICITY” (priority 2021, published 2024)
